This is an account of results in article PMC3399817 (PLoS ONE, 2012).

What all share (test): KINOMEscan
Common to all, as to format: binding

The target in test [1] is T1, RPS6KA2(Kin.Dom.2-C-terminal) (Homo sapiens, UniProt Q15349).
T1 construct: RPS6KA2(Kin.Dom.2-C-terminal); purchased Ambit KINOMEscan (DiscoverX)
Conditions: 1 uM. The method, boiled down: (§1)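 Binding assay, no enzymatic read-out; all compounds tested at 1 μM to find kinases whose substrate binding they inhibit.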

A further test deals with T2, CAMK2B (Homo sapiens, UniProt Q13554).
T2 construct: purchased Ambit KINOMEscan (DiscoverX)
T2 sequence (Q13554 whole entry): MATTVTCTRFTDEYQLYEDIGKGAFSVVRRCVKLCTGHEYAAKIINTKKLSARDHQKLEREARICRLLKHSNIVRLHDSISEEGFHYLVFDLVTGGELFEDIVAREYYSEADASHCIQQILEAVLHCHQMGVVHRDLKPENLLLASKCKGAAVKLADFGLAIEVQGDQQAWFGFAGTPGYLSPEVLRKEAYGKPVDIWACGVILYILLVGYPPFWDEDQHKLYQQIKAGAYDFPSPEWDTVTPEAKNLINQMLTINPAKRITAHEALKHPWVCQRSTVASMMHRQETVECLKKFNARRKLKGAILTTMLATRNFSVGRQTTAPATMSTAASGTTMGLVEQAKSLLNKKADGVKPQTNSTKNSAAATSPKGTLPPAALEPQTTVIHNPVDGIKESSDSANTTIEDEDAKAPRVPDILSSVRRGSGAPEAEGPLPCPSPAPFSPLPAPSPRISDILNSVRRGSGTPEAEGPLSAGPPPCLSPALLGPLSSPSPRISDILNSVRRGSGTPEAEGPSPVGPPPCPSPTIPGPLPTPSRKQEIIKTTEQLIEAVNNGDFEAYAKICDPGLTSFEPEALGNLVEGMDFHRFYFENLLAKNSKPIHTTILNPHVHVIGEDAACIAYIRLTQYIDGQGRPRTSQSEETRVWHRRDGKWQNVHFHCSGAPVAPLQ
Conditions: 1 uM. The method, boiled down: as §1

For test [2], the target named is T3, EGFR(L747-S752del, P753S) (Homo sapiens, UniProt P00533, DEL747-752/P753S).
T3 construct: purchased Ambit KINOMEscan (DiscoverX)
T3 sequence (P00533 with tags, fused parts or gaps DEL747-752/P753S limits assumed): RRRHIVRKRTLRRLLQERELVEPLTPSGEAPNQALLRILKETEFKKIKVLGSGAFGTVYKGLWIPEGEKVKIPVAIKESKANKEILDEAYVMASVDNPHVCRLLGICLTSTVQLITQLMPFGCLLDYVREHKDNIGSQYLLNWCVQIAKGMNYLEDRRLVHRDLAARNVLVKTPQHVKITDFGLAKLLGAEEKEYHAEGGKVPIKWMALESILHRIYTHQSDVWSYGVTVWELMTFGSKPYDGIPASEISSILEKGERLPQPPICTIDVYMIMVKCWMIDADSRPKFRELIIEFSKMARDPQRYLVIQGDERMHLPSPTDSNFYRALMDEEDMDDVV
To be noted: 1 uM. The method, boiled down: as §1

A further test has as its target T4, LRRK2 (Homo sapiens, UniProt Q5S007).
T4 construct: purchased Ambit KINOMEscan (DiscoverX)
Conditions: LRRK2, 1 uM. In a few lines:
as §1

Another test has as its target T5, PIP5K1C (Homo sapiens, UniProt O60331).
T5 construct: purchased Ambit KINOMEscan (DiscoverX)
To be noted: 1 uM. The method, boiled down: as §1

In test [3] the target is T6, RPS6KA3(Kin.Dom.1-N-terminal) (Homo sapiens, UniProt P51812).
T6 construct: RPS6KA3(Kin.Dom.1-N-terminal); purchased Ambit KINOMEscan (DiscoverX)
Conditions: 1 uM. The method, boiled down:
as §1

In the next test the target is T7, EIF2AK1 (Homo sapiens, UniProt Q9BQI3).
T7 construct: purchased Ambit KINOMEscan (DiscoverX)
To be noted: EIF2AK1, 1 uM. In a few lines:
as §1

In the next test the target is T8, FLT3 (Homo sapiens, UniProt P36888).
T8 construct: purchased Ambit KINOMEscan (DiscoverX)
To be noted: FLT3, 1 uM. The method, boiled down: as §1

The next test has as its target T9, MST1R (Homo sapiens, UniProt Q04912).
T9 construct: purchased Ambit KINOMEscan (DiscoverX)
To be noted: 1 uM. In a few lines:
as §1

Another test deals with T10, FLT3(R834Q) (Homo sapiens, UniProt P36888, R834Q).
T10 construct: purchased Ambit KINOMEscan (DiscoverX)
Conditions: 1 uM. The method, boiled down: as §1

The next test deals with T11, PFCDPK1(P.falciparum) (Plasmodium falciparum, UniProt P62344).
T11 construct: purchased Ambit KINOMEscan (DiscoverX)
T11 sequence (P62344 whole entry): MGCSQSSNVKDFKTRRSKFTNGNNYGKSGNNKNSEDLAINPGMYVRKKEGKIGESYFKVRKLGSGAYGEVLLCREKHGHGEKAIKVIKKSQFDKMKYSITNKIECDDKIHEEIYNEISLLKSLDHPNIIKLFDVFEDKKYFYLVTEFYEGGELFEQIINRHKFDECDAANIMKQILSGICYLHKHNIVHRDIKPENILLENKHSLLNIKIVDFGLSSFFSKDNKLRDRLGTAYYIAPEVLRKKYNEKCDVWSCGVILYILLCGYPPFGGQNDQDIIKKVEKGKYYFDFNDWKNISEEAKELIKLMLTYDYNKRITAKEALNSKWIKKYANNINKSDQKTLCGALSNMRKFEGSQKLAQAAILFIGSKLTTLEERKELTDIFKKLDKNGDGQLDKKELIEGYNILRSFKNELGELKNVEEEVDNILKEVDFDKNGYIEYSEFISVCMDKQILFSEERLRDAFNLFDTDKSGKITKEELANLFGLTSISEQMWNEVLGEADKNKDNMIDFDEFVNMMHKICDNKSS
To be noted: 1 uM. In a few lines: as §1

The target of the next test is T12, SNRK (Homo sapiens, UniProt Q9NRH2).
T12 construct: purchased Ambit KINOMEscan (DiscoverX)
Conditions: 1 uM. The method, boiled down: as §1

The next test concerns the target T13, RET(V804M) (Homo sapiens, UniProt P07949, V804M).
T13 construct: purchased Ambit KINOMEscan (DiscoverX)
Conditions: 1 uM. In a few lines: as §1

A further test concerns the target T14, MKK7 (Homo sapiens, UniProt O14733).
T14 construct: purchased Ambit KINOMEscan (DiscoverX)
To be noted: MKK7, 1 uM. In a few lines:
as §1

The next test addresses T15, BLK (Homo sapiens, UniProt P51451).
T15 construct: purchased Ambit KINOMEscan (DiscoverX)
Conditions: 1 uM. The method, boiled down:
as §1

The next test addresses T16, KIT(A829P) (Homo sapiens, UniProt P10721, A829P).
T16 construct: purchased Ambit KINOMEscan (DiscoverX)
Conditions: 1 uM. The method, boiled down: as §1

Another test deals with T17, KIT(D816H) (Homo sapiens, UniProt P10721, D816H).
T17 construct: purchased Ambit KINOMEscan (DiscoverX)
To be noted: 1 uM. The method, boiled down:
as §1

For a further test, the target named is T18, EGFR(L861Q) (Homo sapiens, UniProt P00533, L861Q).
T18 construct: purchased Ambit KINOMEscan (DiscoverX)
To be noted: 1 uM. The method, boiled down: as §1

A further test concerns the target T19, TRKA (Homo sapiens, UniProt P04629).
T19 construct: purchased Ambit KINOMEscan (DiscoverX)
Conditions: 1 uM. The method, boiled down: as §1

The target of another test is T20, CDK4-cyclinD3 (Homo sapiens, UniProt P11802).
T20 construct: purchased Ambit KINOMEscan (DiscoverX)
Conditions: CDK4-cyclinD3, 1 uM. In a few lines: as §1

The target in test [4] is T21, ABL1(F317L)-phosphorylated (Homo sapiens, UniProt P00519, F317L).
T21 construct: purchased Ambit KINOMEscan (DiscoverX)
Conditions: 1 uM. In a few lines: as §1

The target of another test is T22, RIPK5 (Homo sapiens, UniProt Q6XUX3).
T22 construct: purchased Ambit KINOMEscan (DiscoverX)
To be noted: RIPK5, 1 uM. In a few lines: as §1

The next test concerns the target T23, RET(V804L) (Homo sapiens, UniProt P07949, V804L).
T23 construct: purchased Ambit KINOMEscan (DiscoverX)
Conditions: 1 uM. In a few lines:
as §1

Test [5] deals with T24, ABL1(F317L)-nonphosphorylated (Homo sapiens, UniProt P00519, F317L).
T24 construct: purchased Ambit KINOMEscan (DiscoverX)
To be noted: 1 uM. In a few lines: as §1

In test [6] the target is T25, ABL1(F317I)-phosphorylated (Homo sapiens, UniProt P00519, F317I).
T25 construct: purchased Ambit KINOMEscan (DiscoverX)
Conditions: 1 uM. The method, boiled down:
as §1

A further test deals with T26, CLK1 (Homo sapiens, UniProt P49759).
T26 construct: purchased Ambit KINOMEscan (DiscoverX)
T26 sequence (P49759 whole entry): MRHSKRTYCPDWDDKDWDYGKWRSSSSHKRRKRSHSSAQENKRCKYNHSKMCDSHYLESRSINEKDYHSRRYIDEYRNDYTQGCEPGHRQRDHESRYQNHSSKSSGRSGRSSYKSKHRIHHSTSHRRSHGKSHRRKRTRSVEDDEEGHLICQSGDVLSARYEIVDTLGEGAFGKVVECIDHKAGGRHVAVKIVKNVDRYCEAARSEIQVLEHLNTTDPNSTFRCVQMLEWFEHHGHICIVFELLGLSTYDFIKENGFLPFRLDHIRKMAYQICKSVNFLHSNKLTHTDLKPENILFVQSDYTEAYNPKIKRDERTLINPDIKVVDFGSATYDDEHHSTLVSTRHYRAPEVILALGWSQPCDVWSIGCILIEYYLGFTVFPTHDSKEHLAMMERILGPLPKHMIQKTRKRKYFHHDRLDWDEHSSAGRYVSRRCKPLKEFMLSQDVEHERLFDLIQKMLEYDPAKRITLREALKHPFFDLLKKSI
To be noted: CLK1, 1 uM. The method, boiled down:
as §1

The target of another test is T27, DCAMKL2 (Homo sapiens, UniProt Q8N568).
T27 construct: purchased Ambit KINOMEscan (DiscoverX)
Conditions: DCAMKL2, 1 uM. The method, boiled down: as §1

The target of another test is T28, PIP5K2C (Homo sapiens, UniProt Q8TBX8).
T28 construct: purchased Ambit KINOMEscan (DiscoverX)
To be noted: 1 uM. The method, boiled down: as §1

In another test the target is T29, PIK3CA(I800L) (Homo sapiens, UniProt P42336, I800L).
T29 construct: purchased Ambit KINOMEscan (DiscoverX)
To be noted: 1 uM. In a few lines: as §1

In the next test the target is T30, CSNK1A1L (Homo sapiens, UniProt Q8N752).
T30 construct: purchased Ambit KINOMEscan (DiscoverX)
Conditions: 1 uM. In a few lines: as §1

The target in another test is T31, EPHA7 (Homo sapiens, UniProt Q15375).
T31 construct: purchased Ambit KINOMEscan (DiscoverX)
T31 sequence (Q15375 28-998): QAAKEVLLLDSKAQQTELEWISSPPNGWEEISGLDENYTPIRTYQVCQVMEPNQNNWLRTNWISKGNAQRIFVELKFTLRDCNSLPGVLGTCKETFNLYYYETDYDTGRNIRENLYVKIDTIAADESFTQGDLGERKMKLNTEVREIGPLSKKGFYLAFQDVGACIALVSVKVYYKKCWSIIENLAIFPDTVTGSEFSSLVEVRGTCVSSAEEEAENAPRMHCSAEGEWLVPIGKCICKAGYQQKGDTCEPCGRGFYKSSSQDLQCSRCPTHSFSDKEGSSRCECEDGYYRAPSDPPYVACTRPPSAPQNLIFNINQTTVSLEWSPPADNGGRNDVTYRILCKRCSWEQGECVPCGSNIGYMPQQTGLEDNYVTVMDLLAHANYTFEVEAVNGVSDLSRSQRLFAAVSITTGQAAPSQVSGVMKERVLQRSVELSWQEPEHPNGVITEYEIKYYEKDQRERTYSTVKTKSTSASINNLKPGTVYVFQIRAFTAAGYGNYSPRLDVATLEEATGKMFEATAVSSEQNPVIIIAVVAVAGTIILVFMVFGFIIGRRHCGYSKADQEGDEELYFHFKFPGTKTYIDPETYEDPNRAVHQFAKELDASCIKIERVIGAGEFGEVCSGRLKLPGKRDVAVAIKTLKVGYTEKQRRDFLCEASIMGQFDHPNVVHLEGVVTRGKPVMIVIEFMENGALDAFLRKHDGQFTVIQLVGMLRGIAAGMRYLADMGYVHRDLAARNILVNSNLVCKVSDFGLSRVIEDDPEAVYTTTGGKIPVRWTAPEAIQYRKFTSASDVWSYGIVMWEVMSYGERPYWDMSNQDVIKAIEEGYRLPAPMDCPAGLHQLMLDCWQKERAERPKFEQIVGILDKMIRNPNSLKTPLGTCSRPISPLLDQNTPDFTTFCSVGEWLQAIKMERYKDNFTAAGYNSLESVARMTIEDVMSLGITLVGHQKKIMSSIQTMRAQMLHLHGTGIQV
To be noted: EPHA7, 1 uM. The method, boiled down: as §1

The target of test [7] is T32, ABL1(H396P)-phosphorylated (Homo sapiens, UniProt P00519, H396P).
T32 construct: purchased Ambit KINOMEscan (DiscoverX)
To be noted: 1 uM. In a few lines:
as §1

A further test addresses T33, TLK2 (Homo sapiens, UniProt Q86UE8).
T33 construct: purchased Ambit KINOMEscan (DiscoverX)
Conditions: TLK2, 1 uM. The method, boiled down:
as §1

For the next test, the target named is T34, CDK4-cyclinD1 (Homo sapiens, UniProt P11802).
T34 construct: purchased Ambit KINOMEscan (DiscoverX)
To be noted: CDK4-cyclinD1, 1 uM. The method, boiled down: as §1

For the next test, the target named is T35, S6K1 (Homo sapiens, UniProt P23443).
T35 construct: purchased Ambit KINOMEscan (DiscoverX)
Conditions: S6K1, 1 uM. In a few lines:
as §1

For another test, the target named is T36, SRC (Homo sapiens, UniProt P12931).
T36 construct: purchased Ambit KINOMEscan (DiscoverX)
To be noted: 1 uM. The method, boiled down: as §1

In another test the target is T37, ZAK (Homo sapiens, UniProt Q9NYL2).
T37 construct: purchased Ambit KINOMEscan (DiscoverX)
T37 sequence (Q9NYL2 whole entry): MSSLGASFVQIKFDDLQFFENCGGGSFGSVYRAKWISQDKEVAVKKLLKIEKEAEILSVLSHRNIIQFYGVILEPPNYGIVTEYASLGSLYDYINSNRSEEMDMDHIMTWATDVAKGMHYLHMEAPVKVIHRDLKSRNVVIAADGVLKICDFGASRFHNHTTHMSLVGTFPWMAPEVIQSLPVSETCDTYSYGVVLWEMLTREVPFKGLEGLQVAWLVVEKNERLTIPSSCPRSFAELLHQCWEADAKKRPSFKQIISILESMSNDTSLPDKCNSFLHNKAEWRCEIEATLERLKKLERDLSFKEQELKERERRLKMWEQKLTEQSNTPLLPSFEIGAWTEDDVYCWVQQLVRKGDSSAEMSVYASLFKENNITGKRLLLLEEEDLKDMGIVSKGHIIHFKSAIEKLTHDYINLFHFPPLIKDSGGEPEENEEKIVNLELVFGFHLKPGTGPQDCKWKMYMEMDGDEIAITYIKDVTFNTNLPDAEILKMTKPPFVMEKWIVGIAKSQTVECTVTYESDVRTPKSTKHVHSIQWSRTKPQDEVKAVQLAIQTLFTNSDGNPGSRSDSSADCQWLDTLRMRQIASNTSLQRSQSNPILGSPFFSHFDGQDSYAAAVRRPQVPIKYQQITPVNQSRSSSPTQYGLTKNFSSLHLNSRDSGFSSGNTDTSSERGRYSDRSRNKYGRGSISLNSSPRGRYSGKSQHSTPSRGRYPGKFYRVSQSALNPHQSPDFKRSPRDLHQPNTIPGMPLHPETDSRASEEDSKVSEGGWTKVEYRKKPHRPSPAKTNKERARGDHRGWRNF
Conditions: 1 uM. The method, boiled down:
as §1

The target of a further test is T38, PFPK5(P.falciparum) (Plasmodium falciparum, UniProt P61075).
T38 construct: purchased Ambit KINOMEscan (DiscoverX)
T38 sequence (P61075 whole entry): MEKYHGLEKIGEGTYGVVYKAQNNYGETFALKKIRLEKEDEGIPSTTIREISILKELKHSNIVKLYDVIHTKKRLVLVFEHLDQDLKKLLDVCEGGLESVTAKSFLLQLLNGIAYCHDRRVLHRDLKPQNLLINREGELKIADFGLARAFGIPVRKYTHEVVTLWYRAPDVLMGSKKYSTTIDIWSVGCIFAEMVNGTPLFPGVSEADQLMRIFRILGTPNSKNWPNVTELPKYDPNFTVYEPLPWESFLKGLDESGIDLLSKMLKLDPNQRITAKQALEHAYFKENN
Conditions: 1 uM. The method, boiled down:
as §1

T16 sequence (P10721 26-976 A829P): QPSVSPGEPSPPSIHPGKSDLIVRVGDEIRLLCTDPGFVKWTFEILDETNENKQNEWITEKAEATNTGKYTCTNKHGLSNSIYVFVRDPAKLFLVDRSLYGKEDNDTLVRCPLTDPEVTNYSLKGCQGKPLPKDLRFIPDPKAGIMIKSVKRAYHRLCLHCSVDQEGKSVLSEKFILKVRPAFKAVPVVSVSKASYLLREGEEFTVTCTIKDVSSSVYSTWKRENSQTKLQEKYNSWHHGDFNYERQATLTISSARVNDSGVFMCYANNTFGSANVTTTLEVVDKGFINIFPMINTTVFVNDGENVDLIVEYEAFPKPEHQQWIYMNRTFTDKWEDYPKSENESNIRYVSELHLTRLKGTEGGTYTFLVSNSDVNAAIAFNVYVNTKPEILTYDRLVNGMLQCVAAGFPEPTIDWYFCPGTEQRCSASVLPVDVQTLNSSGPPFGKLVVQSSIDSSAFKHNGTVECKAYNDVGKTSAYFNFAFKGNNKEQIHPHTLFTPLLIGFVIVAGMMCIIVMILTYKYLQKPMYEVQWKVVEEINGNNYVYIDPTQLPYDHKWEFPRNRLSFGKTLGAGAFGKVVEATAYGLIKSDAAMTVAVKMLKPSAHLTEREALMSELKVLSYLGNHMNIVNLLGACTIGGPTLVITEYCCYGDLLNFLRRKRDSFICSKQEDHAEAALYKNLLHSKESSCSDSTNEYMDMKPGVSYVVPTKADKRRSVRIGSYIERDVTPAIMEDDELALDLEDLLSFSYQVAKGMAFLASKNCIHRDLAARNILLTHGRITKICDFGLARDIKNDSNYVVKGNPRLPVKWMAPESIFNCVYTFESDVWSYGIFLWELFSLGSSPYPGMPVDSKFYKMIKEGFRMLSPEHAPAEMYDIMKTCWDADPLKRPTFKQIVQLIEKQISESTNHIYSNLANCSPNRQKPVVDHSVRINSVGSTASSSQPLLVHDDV

`COc1ccc(-c2cc3nccn3c(Nc3ncccc3C(N)=O)n2)cc1OC.Cl.Cl` [BAY61-3606, 2-[7-(3,4-dimethoxyphenyl)-imidazo [1,2-c]pyrimidin-5-ylamino] nicotinamide dihydrochloride, reference compound]: in test [1], the “% binding compared to no inhibitor control” value came to 89%.

Regarding `COc1ccccc1Nc1nc(-c2ccc(OC)c(OC)c2)cc2nccn12` [BAY derivative 6], the “% binding compared to no inhibitor control” value at CAMK2B worked out at 100%; in [2] it was 76%; at LRRK2, 95%; on PIP5K1C it was 71%; in test [3], 96%; on EIF2AK1, 88%. The “% binding compared to no inhibitor control” value on FLT3 is on record as 52%; at MST1R, 100%; on FLT3(R834Q), 100%; at PFCDPK1(P.falciparum) it was 67%; at SNRK, 94%; on RET(V804M) it was 94%. Besides, the “% binding compared to no inhibitor control” value on MKK7 is recorded as 86%; at BLK, 43%; on KIT(A829P), 35%; on KIT(D816H), 61%; at EGFR(L861Q), 68%; on TRKA, 98%. Further, the “% binding compared to no inhibitor control” value is given as 95% on CDK4-cyclinD3; 100% in [4]; 100% at RIPK5; 95% at RET(V804L); 100% in [5]; 86% in test [6]. Moreover, the “% binding compared to no inhibitor control” value at CLK1 is given as 100%; at DCAMKL2, 100%; at PIP5K2C, 99%; at PIK3CA(I800L), 100%; at CSNK1A1L, 100%; on EPHA7 it was 100%. In addition, the “% binding compared to no inhibitor control” value in [7] is 100%; on TLK2, 100%; on CDK4-cyclinD1 it was 100%; on S6K1, 84%; at SRC, 51%; at ZAK, 92%. Also, the “% binding compared to no inhibitor control” value on PFPK5(P.falciparum) came to 100%.
